Results published in patent US12728109B2, “Method of increasing the population of Dialister spp. in the gut microbiome” (DSM IP ASSETS B.V., priority 2020, dated 2026).

Legend:
[1] = test system: Dialister; test: In vitro fermentation study 2: intestinal batch fermentation with fecal suspension, 16S rRNA Illumina sequencing and flow cytometry; type: cell-based, Dialister spp.; details: fermentation supernatant at 24 h, donor C, FIG. 1B
Protocol: (§1) At the start of this intestinal batch fermentation incubation, all test ingredients were added from stock solutions to the modified nutritional medium, containing (g/l): 2.5 K2HPO4, 10.9 KH2PO4, 2 NaHCO3, 2 yeast extract, 2 peptone, 1 mucin, 0.5 cystein, 2 Tween 80, 2 glucose, 2 starch, 2 cellobiose, 0.1 NaCl, 0.01 MgSO4·7H2O, 0.01 CaCl2·6H2O, 0.05 hemin, 0.5 bile salts.
The following compounds were added from stock solutions prepared in water: • Beta-carotene, • Vitamin B3, • Vitamin B5, • Vitamin B7, • Fructooligosaccharides (positive control)
(§2) As a source of the microbial community, freshly prepared fecal suspension from a donor was added to the reactors. […] All tests, except the blanks, were performed in single repetition. Incubation conditions were 48 h at 37° C., under shaking (90 rpm) and anaerobic conditions.
Microbial composition: Illumina sequencing was performed at the start and after 24 h of incubation. The technique targets the 16S rRNA gene that consists of variable and conserved regions, spread over the gene. Due to their key role in protein expression, the conserved regions are characterized by very low evolutionary rates.
The methodology applied involves primers that span 2 hypervariable regions (V3-V4) of the 16S rRNA gene. Using a pair-end sequencing approach, sequencing of 2×250 bp results in 424 bp amplicons. Such fragments are taxonomically more informative as compared to smaller fragments. Samples that were analyzed with Illumina sequencing were also analyzed with flow cytometry to determine the number of total bacterial cells, thus allowing to convert the proportional values obtained with Illumina into absolute quantities. Samples were analyzed on a BDFacs verse. The samples were run using the high flow rate. Bacterial cells were separated from medium debris and signal noise by applying a threshold level of 200 on the SYTO channel. Proper parent and daughter gates were set to determine all populations.

[2] = test system: Dialister; test: In vitro fermentation study 1: intestinal batch fermentation with fecal suspension, shotgun metagenome sequencing; type: cell-based, Dialister spp.; details: fermentation supernatant at 24 hours; all tested concentrations (0.2x, 1x, 5x); FIG. 1A
Protocol: as §1, with “cysteine,” for “cystein,”
The following compounds were added from stock solutions prepared in water for vitamin B2 and B9, and in ethanol for vitamin K1, DHA and EPA:
as §2, with “Each compound was tested in three different concentrations. As” for “As”
Microbial composition: Total DNA was extracted from all fermentation samples collected throughout the study using the QIAamp DNA stool minikit (Qiagen, Crawley, United Kingdom) according to the manufacturer's instructions, apart from addition of a bead-beating step and increasing the lysis temperature to 95° C. as described previously. After DNA isolation, DNA was quantified using the Qubit High Sensitivity DNA assay (Thermo Fisher). Whole metagenome libraries were then prepared using the Illumina Nextera XT kit (Illumina) in accordance with the manufacturer's instructions, with the following modifications: Firstly, tagmentation time was increased to 7 min and secondly, following incorporation of indices and Ampure purification of the products, the samples were each individually sized by running on an Agilent High Sensitivity Chip (Agilent) and quantified using the Qubit High Sensitivity DNA assay (Thermo Fisher) in accordance with Teagasc Sequencing Platform SOPs. […] Delivered raw FASTQ sequence files were quality checked as follows: poor quality and duplicate read removal, as well as trimming was implemented using a combination of SAM and Picard tools. Taxonomy was assigned to the reads using the Metaphlan2 software.

[3] = test system: fecal Dialister; test: Clinical study: randomized, double-blind, placebo-controlled study of colon-targeted vitamins, fecal microbial composition; type: in vivo; details: human, colon-release capsule once daily for four weeks, fecal samples; FIG. 1C
Source text: Twelve participants were allocated to each of the six vitamin groups, and 24 participants allocated to the placebo group. All 96 participants completed the intervention. To be considered eligible for enrollment into the study, participants have to be able to give written informed consent; be aged between 20 and 50 years of age; have a BMI of between 18.5-30 Kg/m2; have a stable body weight (<5% change) over the past 3-months; be in generally good health, as determined by the investigator; have not consumed dietary supplements, prebiotic, probiotic, dietary or fiber-rich supplements within 4 weeks prior to baseline visit and be willing to avoid these supplements until the end of the study; be willing to avoid liver consumption for the duration for the study, be willing to maintain their current level of physical activity for the duration of the study; and be willing to consume the IP daily for the duration of the study. […] Before the randomization visit, participants food frequency questionnaires were analyzed to ensure their typical fiber intake is <30 g fiber/day. […] At the baseline visit (Visit 2), participants retuned a fecal samples collected in the previous 48 hours and eligibility was assessed. […] Participants returned their IP and compliance was assessed. […]

Compound	Dialister relative abundances compared to control ([1]; all tested concentrations)	Dialister relative abundances compared to control [2]	also measured
CC1=C(/C=C/C(C)=C/C=C/C(C)=C/C=C/C=C(C)/C=C/C=C(C)/C=C/C2=C(C)CCCC2(C)C)C(C)(C)CCC1 [beta-carotene, Beta-carotene]	increase		
Cc1cc2nc3c(=O)[nH]c(=O)nc-3n(C[C@H](O)[C@H](O)[C@H](O)CO)c2cc1C [vitamin B2, Riboflavin]		substantial increase	
NC(=O)c1cccnc1 [vitamin B3, Niacinamide]	no distinct increase		
CC(C)(CO)[C@@H](O)C(=O)NCCC(=O)O [vitamin B5, Pantothenic acid]			Dialister relative abundances compared to control ([1]; at 0.2× and 5×): increase
O=C(O)CCCC[C@@H]1SC[C@@H]2NC(=O)N[C@@H]21 [vitamin B7, Biotin]	no distinct increase		
Nc1nc2ncc(CNc3ccc(C(=O)N[C@@H](CCC(=O)O)C(=O)O)cc3)nc2c(=O)[nH]1 [vitamin B9, Folic acid]		no distinct increase	
C=C1CC[C@H](O)C/C1=C/C=C1\CCC[C@]2(C)[C@@H]([C@H](C)CCCC(C)C)CC[C@@H]12 [vitamin D3, cholecalciferol]			Dialister relative abundance compared to placebo [3]: increase
CC1=C(C/C=C(\C)CCC[C@H](C)CCC[C@H](C)CCCC(C)C)C(=O)c2ccccc2C1=O [vitamin K1]		substantial increase	
vitamin A			Dialister relative abundance compared to placebo [3]: increase
